Structures can show the parent of a compound that is named as a salt.
The molecules below were run against T1, human D2S receptor (Homo sapiens, UniProt P14416) (assay: Competition radioligand binding at human D2 receptor ([3H]-Spiperone, CHO-K1 membranes)). Conditions: D2 receptor affinity.
T1 construct: expressed in transfected cells; host or cells: CHO-K1
Procedure: Experiments were carried out in membranes isolated from a CHO-K1 cell line stably overexpressing the cloned human D2S receptor.
Competition radioligand binding assays were performed on membranes isolated from cell lines stably expressing the cloned human receptors, which were either in-house or commercially available. […] Assays (250 μL assay final volume) were carried out in 96-well polypropylene plates in duplicate. In short, the suspension of appropriate membrane protein was incubated in an assay buffer with the addition of the corresponding radioligand, in the presence or absence of a tested compound or reference compound. […] After the incubation, the content of the test plates was transferred to 96 well plates with glass fiber filter GF/B or GF/C, previously pretreated with polyethyleneimine (PEI), and rapidly filtered with the use of vacuum, followed by rapid washing with cold (4 °C) wash buffer. After that, the filter plates were dried at 60 °C for 1 h. Then, 30 μL of liquid scintillation cocktail (UniverSol-ES, MP Biomedicals, Solon, OH, USA) was added to each well of the filter plates, and the radioactivity was measured in a MicroBeta^2 microplate scintillation counter (PerkinElmer, Madrid, Spain).
Competition binding curves were fitted to a one-site competition binding model (Fit Ki) with the use of Prism 7 software (GraphPad, San Diego, CA, USA). logKi (log of the equilibrium dissociation constant (Ki)) values were obtained after constraining the concentration of radioligand employed in the assay and its dissociation constant (KD) as determined in saturation radioligand binding assays.

T1 sequence (P14416 1-414 isoform P14416-2): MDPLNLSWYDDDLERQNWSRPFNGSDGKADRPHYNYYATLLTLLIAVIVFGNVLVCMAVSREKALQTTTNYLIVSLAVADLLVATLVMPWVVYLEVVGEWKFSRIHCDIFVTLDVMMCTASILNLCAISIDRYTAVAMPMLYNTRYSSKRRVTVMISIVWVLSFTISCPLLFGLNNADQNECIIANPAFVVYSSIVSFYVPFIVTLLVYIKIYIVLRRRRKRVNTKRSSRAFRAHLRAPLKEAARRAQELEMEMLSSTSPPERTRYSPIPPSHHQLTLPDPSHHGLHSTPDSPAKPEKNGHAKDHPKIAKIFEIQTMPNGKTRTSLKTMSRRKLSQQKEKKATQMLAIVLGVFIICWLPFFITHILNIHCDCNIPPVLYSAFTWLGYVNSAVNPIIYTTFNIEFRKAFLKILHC

| SMILES | decrease of activity compared to the initial compound (D2AAK2) [fold] |
| --- | --- |
| O=C(CCN1C(=O)CCOc2ccccc21)Nc1ccc(C(F)(F)F)cc1 [Compound 4, 3-(4-Oxo-3,4-dihydrobenzo[b][1,4]oxazepin-5(2H)-yl)-N-(4-(trifluoromethyl)phenyl)propanamide] | 10 |

Same assay, conditions: mean ± SEM of 2–3 independent experiments in duplicate; read-out: huD2 Ki

| SMILES | Ki [µM] |
| --- | --- |
| O=C(CCN1C(=O)CCOc2ccccc21)Nc1ccc(C(F)(F)F)cc1 [Compound 4, 3-(4-Oxo-3,4-dihydrobenzo[b][1,4]oxazepin-5(2H)-yl)-N-(4-(trifluoromethyl)phenyl)propanamide] | 3.846 ± 0.035 |

Same assay, conditions: read-out: huD2 % inh. at 10 µM

| SMILES | inhibition at 10 µM [%] |
| --- | --- |
| O=C(CCN1C(=O)COc2ccccc21)Nc1ccc(C(F)(F)F)cc1 [Compound 1, 3-(3-Oxo-2,3-dihydro-4H-benzo[b][1,4]oxazin-4-yl)-N-(4-(trifluoromethyl)phenyl)propanamide] | 35 ± 14 |
| O=C(CCn1c(=O)sc2ccccc21)Nc1ccc(C(F)(F)F)cc1 [Compound 2, 3-(2-Oxobenzo[d]thiazol-3(2H)-yl)-N-(4-(trifluoromethyl)phenyl)propanamide] | 11 ± 5 |
| O=C(CCn1c(=O)oc2ccccc21)Nc1ccc(C(F)(F)F)cc1 [Compound 3, 3-(2-Oxobenzo[d]oxazol-3(2H)-yl)-N-(4-(trifluoromethyl)phenyl)propanamide] | 8 ± 8 |
| O=C(CCN1CCSCC1=O)Nc1ccc(C(F)(F)F)cc1 [Compound 5, 3-(3-Oxothiomorpholino)-N-(4-(trifluoromethyl)phenyl)propanamide] | 14 ± 10 |
| O=C(CCN1CCCCC1=O)Nc1ccc(C(F)(F)F)cc1 [Compound 6, 3-(2-Oxopiperidin-1-yl)-N-(4-(trifluoromethyl)phenyl)propanamide] | 14 ± 11 |
| Cc1ccccc1S(=O)(=O)NCCC(=O)Nc1ccc(C(F)(F)F)cc1 [Compound 7, 3-((2-Methylphenyl)sulfonamido)-N-(4-(trifluoromethyl)phenyl)propanamide] | 13 ± 13 |
| Cc1ccc(S(=O)(=O)NCCC(=O)Nc2ccc(C(F)(F)F)cc2)cc1 [Compound 8, 3-((4-Methylphenyl)sulfonamido)-N-(4-(trifluoromethyl)phenyl)propanamide] | 8 ± 7 |
| O=C(CN1C(=O)CSc2ccccc21)Nc1ccc(C(F)(F)F)cc1 [Compound 9, 2-(3-Oxo-2,3-dihydro-4H-benzo[b][1,4]thiazin-4-yl)-N-(4-(trifluoromethyl)phenyl)acetamide] | 8 ± 8 |
| O=C(CCN1C(=O)CSc2ccccc21)Nc1ccccc1 [Compound 10, 3-(3-Oxo-2,3-dihydro-4H-benzo[b][1,4]thiazin-4-yl)-N-phenylpropanamide] | 39 ± 4 |
| O=C(CCN1C(=O)CSc2ccccc21)Nc1ccccc1C(F)(F)F [Compound 11, 3-(3-Oxo-2,3-dihydro-4H-benzo[b][1,4]thiazin-4-yl)-N-(2-(trifluoromethyl)phenyl)propanamide] | 9 ± 1 |
| Cc1ccccc1NC(=O)CCN1C(=O)CSc2ccccc21 [Compound 12, 3-(3-Oxo-2,3-dihydro-4H-benzo[b][1,4]thiazin-4-yl)-N-(o-tolyl)propanamide] | 10 |
| Cc1cccc(NC(=O)CCN2C(=O)CSc3ccccc32)c1 [Compound 13, 3-(3-Oxo-2,3-dihydro-4H-benzo[b][1,4]thiazin-4-yl)-N-(m-tolyl)propanamide] | 32 ± 4 |
| O=C(CCN1C(=O)CSc2ccccc21)Nc1ccccc1Cl [Compound 15, N-(2-Chlorophenyl)-3-(3-oxo-2,3-dihydro-4H-benzo[b][1,4]thiazin-4-yl)propanamide] | 9 ± 3 |
| O=C(CCN1C(=O)CSc2ccccc21)Nc1cccc(Cl)c1 [Compound 16, N-(3-Chlorophenyl)-3-(3-oxo-2,3-dihydro-4H-benzo[b][1,4]thiazin-4-yl)propanamide] | 42 ± 8 |
| COc1ccccc1NC(=O)CCN1C(=O)CSc2ccccc21 [Compound 18, N-(2-Methoxyphenyl)-3-(3-oxo-2,3-dihydro-4H-benzo[b][1,4]thiazin-4-yl)propanamide] | 6 |
| COc1cccc(NC(=O)CCN2C(=O)CSc3ccccc32)c1 [Compound 19, N-(3-Methoxyphenyl)-3-(3-oxo-2,3-dihydro-4H-benzo[b][1,4]thiazin-4-yl)propanamide] | 10 ± 4 |
| COc1ccc(NC(=O)CCN2C(=O)CSc3ccccc32)cc1 [Compound 20, N-(4-Methoxyphenyl)-3-(3-oxo-2,3-dihydro-4H-benzo[b][1,4]thiazin-4-yl)propanamide] | 47 ± 1 |
| O=C(CCN1C(=O)CSc2ccccc21)Nc1ccccc1[N+](=O)[O-] [Compound 21, N-(2-Nitrophenyl)-3-(3-oxo-2,3-dihydro-4H-benzo[b][1,4]thiazin-4-yl)propanamide] | 5 ± 3 |
| O=C(CCN1C(=O)CSc2ccccc21)Nc1cccc([N+](=O)[O-])c1 [Compound 22, N-(3-Nitrophenyl)-3-(3-oxo-2,3-dihydro-4H-benzo[b][1,4]thiazin-4-yl)propanamide] | 27 ± 2 |

The molecules below were run on mice (assay: Amphetamine-induced hyperactivity in mice). Conditions: amphetamine 3 mg/kg s.c.
Assay type: in vivo
Procedure: (§1) The experiments were carried out on 6 weeks old naive Swiss male mice (Experimental Medicine Center (OMD), Lublin, Poland), weighing 28–30 g. The cages with mice were located in air-conditioned rooms maintaining the ambient temperature within the range of 23–25 °C. The animals were provided with a natural 12 h day/night cycle, replicating the day and night mode. Each testing group was represented by 8–10 animals, depending on the research schedule. All experiments were conducted according to the National Institute of Health Guidelines for the Care and Use of Laboratory Animals (8th edition) and to the European Community Council Directive for the Care and Use of Laboratory Animals of 22 September 2010 (2010/63/EU) and were approved by the Local Ethical Committee (number of ethical approval: 147/2018).
(§2) Compound 17 (25, 50, 75 mg/kg) was suspended in 1% Tween 80 in saline solution and was administered intraperitoneally (i.p.) 60 min before the test. Diazepam (DZ, Relanium, Polfa, Poland) at a dose of 1 mg/kg was diluted in 0.9% saline containing 1% Tween 80 and was administered subcutaneously (s.c.), 60 min before the test. Imipramine hydrochloride (30 mg/kg, Sigma-Aldrich was administered intraperitoneally (i.p.) 60 min before the test. D-amphetamine sulfate (3 mg/kg; Sigma-Aldrich, USA) was given subcutaneously (s.c.). Prior to administration, the agent was dissolved in saline and injected 30 min before the test. Control animals received an (i.p.) or (s.c.) injection of a respective vehicle. All compounds were injected in a manner generally accepted in experimental pharmacology, in an amount of 10 mL/kg body weight.
The measurement of the spontaneous locomotor activity was carried out using the OptoVarimex 4 Auto-Track device (Columbus Instruments, Columbus, OH, USA). Tested animals are kept in cages for 30 min. Their activity was recorded as interruptions of the light beams after 10 and 30 min of the test, and it was calculated automatically as a traveled distance in cm (±SEM). To determine whether compound 17 has an influence on amphetamine-induced hyperactivity, each mouse received 17 (25, 50 and 75 mg/kg; i.p.) and amphetamine (3 mg/kg; s.c.) 30 min after injection of 17 or vehicle and then spontaneous locomotor activity was measured.

| SMILES | effect on locomotor activity compared to the control group after 10 min | effect on locomotor activity compared to the control group after 30 min |
| --- | --- | --- |
| C[C@H](N)Cc1ccccc1 [amphetamine, D-amphetamine sulfate, reference compound] | increased mice locomotor activity | increased mice locomotor activity |

These molecules were tested on mice (assay: Elevated plus-maze (EPM) test). Conditions: 1 mg/kg s.c., 60 min before the test; p < 0.05 versus vehicle.
Assay type: in vivo
Procedure: as §1, §2
The experiment was carried out on mice according to the method of Lister. […] The number of entries into the open arms and the time spent in these arms were scored for a 5-min test period. […] The following measures were obtained from the test: the total number of arm entries, the percentage of entries into the open arms, the time spent in the open arms expressed as a percentage of the time spent in both the open and closed arms. […]

| SMILES | time spent in the open arms of the maze |
| --- | --- |
| CN1C(=O)CN=C(c2ccccc2)c2cc(Cl)ccc21 [Diazepam, reference compound] | statistically significant increase |

Each molecule was assayed on mice (assay: Forced swim test (FST)). Conditions: imipramine 30 mg/kg i.p., 60 min before the test; p < 0.001.
Assay type: in vivo
Procedure: The experiments were carried out on 6 weeks old naive Swiss male mice (Experimental Medicine Center (OMD), Lublin, Poland), weighing 28–30 g. The cages with mice were located in air-conditioned rooms maintaining the ambient temperature within the range of 23–25 °C. The animals were provided with a natural 12 h day/night cycle, replicating the day and night mode. Each testing group was represented by 8–10 animals, depending on the research schedule. All experiments were conducted according to the National Institute of Health Guidelines for the Care and Use of Laboratory Animals (8th edition) and to the European Community Council Directive for the Care and Use of Laboratory Animals of 22 September 2010 (2010/63/EU) and were approved by the Local Ethical Committee (number of ethical approval: 147/2018). Compound 17 (25, 50, 75 mg/kg) was suspended in 1% Tween 80 in saline solution and was administered intraperitoneally (i.p.) 60 min before the test. […] Imipramine hydrochloride (30 mg/kg, Sigma-Aldrich was administered intraperitoneally (i.p.) 60 min before the test. […] Sigma-Aldrich, USA) was given subcutaneously (s.c.). Prior to administration, the agent was dissolved in saline and injected 30 min before the test. Control animals received an (i.p.) or (s.c.) injection of a respective vehicle. All compounds were injected in a manner generally accepted in experimental pharmacology, in an amount of 10 mL/kg body weight. Forced Swim Test was carried out according to the method of Porsolt et al.. It is a standard behavioral test, called the resignation test, which is used to determine the effectiveness of antidepressant drugs in laboratory rodents. Each mouse was placed individually for 6 min into a glass cylinder (height 25 cm, diameter 10 cm) with 15 cm of water at 23–25 °C. After the first 2 min of the test, the total duration of immobility (in seconds) was measured. An animal was judged to be immobile when it ceased struggling and remained floating motionless and making only movements allowing it to keep the head just above the surface of the water.

| SMILES | effect on immobility time |
| --- | --- |
| CN(C)CCCN1c2ccccc2CCc2ccccc21 [imipramine, Imipramine hydrochloride, reference compound] | statistically significant decrease |
